Counter-ions that a name gives are not always drawn.
melting point | SMILES
175 to 177 °C | N=c1n(Cc2cccc(C(F)(F)F)c2)c2ccccc2n1Cc1cccc(C(F)(F)F)c1 [Example 16, 1,3-Bis[3-(trifluoromethyl)benzyl]-1,3-dihydrobenzoimidazol-2-ylideneamine]
158.5 to 159.5 °C | Fc1ccc(CNc2nc3ccccc3n2-c2ccc(F)c(F)c2)cc1F [Example 19, (3,4-Difluorobenzyl)-[1-(3,4-difluorophenyl)-1H-benzoimidazol-2-yl]amine]
115 to 117 °C | Fc1ccc(Nc2nc3ccccc3n2-c2ccc(F)c(F)c2)cc1F [Example 20, (3,4-Difluorophenyl)-[1-(3,4-difluorophenyl)-1H-benzoimidazol-2-yl]amine]
> 166 °C (dec.) | N=c1n(Cc2ccc(F)c(F)c2)c2ccc(F)cc2n1Cc1ccc(F)c(F)c1 [Example 15, 1,3-Bis(3,4-difluorobenzyl)-5-fluoro-1,3-dihydrobenzoimidazol-2-ylideneamine]
88 to 89.5 °C | N=c1n(Cc2ccc(F)c(F)c2)c2ccc(Br)cc2n1Cc1ccc(F)c(F)c1 [Example 17, 1,3-Bis(3,4-difluorobenzyl)-5-bromo-1,3-dihydrobenzoimidazol-2-ylideneamine]

The next lines start with the compound.

SMILES | melting point
N=c1n(Cc2ccc(Cl)c(Cl)c2)c2ccccc2n1Cc1ccc(Cl)c(Cl)c1 [Example 2, 1,3-Bis(3,4-dichlorobenzyl)-1,3-dihydrobenzoimidazol-2-ylideneamine] | 145 to 146 °C
Fc1ccc(CNc2nc3ccccc3n2Cc2ccc(Cl)c(C(F)(F)F)c2)cc1F [Example 9, N-[1-(4-Chloro-3-trifluoromethylbenzyl)benzimidazol-2-yl]-3,4-difluorobenzylamine] | 158 to 161 °C
N=c1n(Cc2ccc(F)c(F)c2)c2ccccc2n1Cc1ccc(F)c(F)c1 [Example 4, 1,3-Bis(3,4-difluorobenzyl)-1,3-dihydrobenzoimidazol-2-ylideneamine] | 114 to 117 °C
N=c1n(Cc2ccc(F)c(F)c2)c2ccccc2n1-c1ccc(F)c(F)c1 (as salt: hydrobromid) [Example 13, 1-(3,4-Difluorobenzyl)-3-(3,4-difluorophenyl)-1,3-dihydrobenzoimidazol-2-ylideneamine] | 259 to 260 °C
Fc1ccc(Cn2c(Nc3ccc(F)c(F)c3)nc3ccccc32)cc1F (as salt: hydrochloride) [Example 5, N-[1-(3,4-Difluorobenzyl)benzimidazol-2-yl]-3,4-difluoroaniline] | 236 to 238 °C
FC(F)(F)c1cc(Cn2c(Nc3ccc(Cl)c(C(F)(F)F)c3)nc3ccccc32)ccc1Cl [Example 8, N-[1-(4-Chloro-3-trifluoromethylbenzyl)benzimidazol-2-yl]-4-chloro-3-trifluoromethylaniline] | 88 to 92 °C
Fc1ccc(Cn2c(Nc3ccc(C(F)(F)F)cc3)nc3ccccc32)cc1F [Example 7, N-[1-(3,4-Difluorobenzyl)benzimidazol-2-yl]-4-trifluoromethylaniline] | 167 to 170 °C
N=c1n(Cc2cc(F)cc(F)c2)c2ccccc2n1Cc1cc(F)cc(F)c1 [Example 12, 1,3-Bis(3,5-difluorobenzyl)-1,3-dihydrobenzoimidazol-2-ylideneamine] | 144 to 145 °C
N=c1n(Cc2ccc(Cl)cc2)c2ccccc2n1Cc1ccc(Cl)cc1 [Example 1, 1,3-Bis(4-chlorobenzyl)-1,3-dihydrobenzoimidazol-2-ylideneamine] | 185 to 187 °C
N=c1n(Cc2ccc(F)cc2)c2ccccc2n1Cc1ccc(F)cc1 [Example 3, 1,3-Bis(4-fluorobenzyl)-1,3-dihydrobenzoimidazol-2-ylideneamine] | 148 to 150 °C
